Assay type in all cases: cell-based, human
The test system of assay [1] is peptide-pulsed C1R-A11. Nature of the assay: IFN-gamma ELISA of CTL lines and CTL clones (HLA-A*1101). The note with it: CTL lines; target cells pulsed with the peptide vs not pulsed; C1R-A11. On the procedure:
(§1) CTLs were propagated in culture using methods similar to those disclosed by Riddell et al. (Walter E A et al., N Engl J Med 1995, 333(16): 1038-44; Riddell S R et al., Nat Med 1996, 2(2): 216-23). The CTLs were co-cultured in a total of 25 ml AIM-V medium containing 5% AS (AIM-V/5% AS) and 40 ng/ml anti-CD3 antibody with two types of Mitomycin C-treated human B lymphoblastoid cell lines at 5×10^6 cells/flask. One day after beginning of the culturing, 120 IU/ml IL-2 was added to the culture. On days 5, 8 and 11, a fresh AIM-V/5% AS medium containing 30 IU/ml IL-2 was added to the culture (Tanaka H et al., Br J Cancer 2001, 84(1): 94-9; Umano Y et al., Br J Cancer 2001, 84(8): 1052-7; Uchida N et al., Clin Cancer Res 2004, 10(24): 8577-86; Suda T et al., Cancer Sci 2006, 97(5): 411-9; Watanabe T et al., Cancer Sci 2005, 96(8): 498-506).
(§2) Dilution of CTLs was carried out to make 0.3, 1 and 3 cells/well in 96 round-bottomed microtiter plates (Nalge Nunc International). The CTLs were co-cultured with two types of Mitomycin C-treated human B lymphoblastoid cell lines at 1×10^4 cells/well in a total of 150 micro-1/well AIM-V/5% AS medium with 30 ng/ml anti-CD3 antibody and 125 IU/ml IL-2. Ten days later, IL-2 was added to the medium at 50 micro-1/well to reach a final concentration of 125 IU/ml. On day 14, the CTL activity was tested, and the CTL clones were propagated using the same method as described above (Uchida N et al., Clin Cancer Res 2004, 10(24): 8577-86; Suda T et al., Cancer Sci 2006, 97(5): 411-9; Watanabe T et al., Cancer Sci 2005, 96(8): 498-506).
Specifically, peptide-pulsed C1R-A11 (1×10^4 cells/well) was prepared as the stimulator cell. The induced CTLs, i.e., CTL lines and CTL clones, were used as the responder cell. The IFN-gamma ELISPOT assay and IFN-gamma ELISA were performed according to the manufacturer's manual.
A general note: An ELISA detects its analyte on a solid surface through an enzyme-linked reagent.

In assay [2] the test system is peptide-pulsed C1R-A11. Nature of the assay: In vitro CTL induction, IFN-gamma ELISPOT assay (HLA-A*1101). The note with it: CTLs induced with peptide-pulsed DCs from HLA-A*1101-positive volunteers; day 21; vs peptide-pulsed C1R-A11, compared with unpulsed control. In short, it runs like this: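 CD8+ T cells from HLA-A*1101-positive donors were stimulated three times (days 0, 7, 14) with irradiated autologous monocyte-derived DCs pulsed with 20 μg/ml peptide, in the presence of IL-7 and IL-2. On day 21, […] were tested by IFN-gamma ELISPOT against peptide-pulsed C1R-A11 stimulators at 1×10^4 cells/well.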

A further assay has as its system peptide-pulsed C1R-A33. Nature of the assay: IFN-gamma ELISA of CTL lines and CTL clones (HLA-A*3303). On the procedure:
as §1, §2
Specifically, peptide-pulsed C1R-A33 (1×10^4 cells/well) was prepared as the stimulator cell. The induced CTLs, i.e., CTL lines and CTL clones, were used as the responder cell. The IFN-gamma ELISPOT assay and IFN-gamma ELISA were performed according to the manufacturer's manual.

As for “TQFVGAIIGK (a peptide derived from KOC1) [SEQ ID NO: 30]”, the “IFN-gamma production of CTL lines, ELISA” value with peptide-pulsed C1R-A11 [1] was “potent IFN-gamma production”. For the same sequence, the “peptide-specific CTL activity (IFN-gamma production), ELISPOT” value in the assay with peptide-pulsed C1R-A11 [2] is “potent IFN-gamma production”.
Turning to “ILAHNNFVGR (a peptide derived from KOC1) [SEQ ID NO: 52]”, the “IFN-gamma production of CTL clones, ELISA” value in the assay with peptide-pulsed C1R-A33 (CTL clones by limiting dilution, peptide-pulsed C1R-A33, listed as KOC1-A33-10-281) was “Potent IFN-gamma production”. Besides, the “IFN-gamma production of CTL lines, ELISA” value with peptide-pulsed C1R-A33 (CTL lines, target cells pulsed with the peptide vs not pulsed, C1R-A33) is on record as “potent IFN-gamma production”.

Source of the values: patent US10576102B2, “KOC1-derived peptide and vaccine including same” (ONCOTHERAPY SCIENCE, INC., priority 2014, dated 2020).
